“Also recorded” adds a separate entry of the source. Where two headings read alike, the source gives them in different places.
Columns and labels:
[1] = tested on: adult S. mansoni; experiment: In vitro assay on adult S. mansoni worms, viability scoring by microscopy; type: cell-based; details: Schistosoma mansoni, read-out: Adult IC50
Text: (§1) The S. mansoni (Liberian strain) life-cycle, is maintained in-house at the Swiss Tropical and Public Health Institute (Swiss TPH), as described before. Biomphalaria glabrata were infected with 6 to 8 S. mansoni miracidia. They were kept in pond water under natural light, temperature and humidity conditions until the infectious stage, the cercariae, started to shed. The cercariae were mechanically transformed to schistosomula, the NTS, using a procedure adapted from Milligan & Jolly. NTS were incubated (37 °C, 5% CO2) until use for 12 to maximum 24 h in M199 medium supplemented with FCS and antibiotics. Adult S. mansoni of both sexes were collected by dissecting the intestinal veins of mice euthanized 7 weeks post-infection. All the adult worms recovered were incubated for maximum one week until use in RPMI medium supplemented with FCS and penicillin-streptomycin.
(§2) Hit compounds identified on NTS progressed into testing on adult worms. Females, males and pairs (3 to 5 worms per well) were exposed to the drug dilution in supplemented RPMI medium. The assays were performed in duplicate in 24-wells plates (Eppendorf AG, Hamburg, Germany). […] Each IC50 assay was repeated once. These assays were repeated for the lead compounds in presence of albumin (BSA) at the human physiological concentration of 45 g/l (AlbuMAX II, Gibco). For all in vitro assays (NTS and adults), negative controls containing the highest concentration of DMSO were included. Worms incubated with praziquantel served as positive controls. The parasites were evaluated under an inverted optical microscope over 3 days after drug exposure. Their movement and morphology were assessed and scored as described previously.
(§3) For in vitro assays, the average viability scores between replicates (or individual adult worms) were normalised to the controls and converted into percentage activity (or effect). […] The linear correlation coefficient (r) reflects the experimental fit. In this study, r-values > 0.70 were considered acceptable. […] The selectivity index (SI) of each drug was calculated by dividing the CC50 measured on the L6 cells by the IC50 measured on the parasites. For in vivo studies, as previously described, the worm burden reduction [%] was determined by comparing the worm burden of treated and untreated mice. For statistical significance a Kruskal-Wallis test was employed (R version 3.2.2).

[2] = Cytotoxicity assay on L6 cells (resazurin / Alamar Blue); type: cell-based; details: rat
Procedure: Rat skeletal myoblast L6 cells (2 × 10^4 cells/ml) were exposed to serial dilutions of the 11 lead compounds (1:3, range: 0.37–90 μM). Podophyllotoxin (PPT, 1:3, range: 2 × 10^-4 –0.05 μg/ml) was used as a positive control. After a 72-hour incubation, resazurin dye (Alamar Blue) was added to the plates. […] Each drug was tested in duplicate and each assay was repeated once.
(§4) For in vitro assays, the average viability scores between replicates (or individual adult worms) were normalised to the controls and converted into percentage activity (or effect). Drug IC50 values (for NTS or adult worms) were calculated by computing different dose-effect values using CompuSyn2 software (ComboSyn Inc., 2007). The linear correlation coefficient (r) reflects the experimental fit. In this study, r-values > 0.70 were considered acceptable. […] The selectivity index (SI) of each drug was calculated by dividing the CC50 measured on the L6 cells by the IC50 measured on the parasites. For in vivo studies, as previously described, the worm burden reduction [%] was determined by comparing the worm burden of treated and untreated mice. For statistical significance a Kruskal-Wallis test was employed (R version 3.2.2).

[3] = tested on: newly transformed schistosomula (NTS) of Schistosoma mansoni; experiment: In vitro assay on newly transformed schistosomula (NTS), viability scoring by microscopy; type: cell-based
Text: as §1
For in vitro screening on NTS, the parasite suspension was adjusted to 50 NTS/100 μl in supplemented M199 medium and added to the drug dilutions in 96-wells plates (Eppendorf AG, Hamburg, Germany). NTS were initially exposed to a drug concentration of 10 μM (0.1% DMSO). Each drug was tested in duplicate.
as §2, with “Germany). […] Each assay on NTS was performed in triplicate with serial drug dilutions (1:2, range: 10–0.16 μM) and repeated once.” for “Germany).”
as §4

[4] = tested on: MRC5 cells; details: read-out: MRC5 cells CC50; ref provided by MMV; cited from earlier work
[5] = tested on: S. mansoni; experiment: In vivo efficacy in mice harbouring a chronic S. mansoni infection (worm burden); design: species or system Schistosoma mansoni; details: for inhibition in vivo at 200 mg/kg: Schistosoma mansoni
Procedure: (§5) Three weeks old NMRI female mice were used (Charles Rivers, Germany) for in vivo drug efficacy studies. The animals were kept in groups of ten with constant access to food and water. After one week of habituation, mice were sub-cutaneously injected a suspension containing 100 S. mansoni cercariae in phosphate-buffered saline (PBS). The drugs (200 mg/kg single dose) were administered seven weeks post-infection by oral gavage to groups of 4 mice. They were dissolved in tap water with Tween80/ethanol (10%, 70:30). Untreated mice (n = 10) served as control and were dissected 7 weeks post-infection. Treated mice (n = 40) were euthanized with CO2 and dissected between 16 to 18 days post-drug administration. The worms were then collected, sexed and counted.
as §4

[6] = tested on: adult S. mansoni; experiment: In vitro assay on adult S. mansoni worms in albumin-enriched medium (45 g/l); type: cell-based; details: Schistosoma mansoni, read-out: Adult IC50 with albumin
Procedure: as §2, §3

[7] = Survival of treated infected mice in the in vivo study; details: single 200 mg/kg oral dose
Procedure: as §5
Eight compounds had no effect on the worm burden in infected mice (worm burden reduction < 36%).

[8] = 72-hour incubation, read-out: L6 cells CC50
[9] = Schistosoma mansoni, 24 h; read-out: NTS IC50
[10] = Schistosoma mansoni, 48 h; read-out: NTS IC50
[11] = mice, single 200 mg/kg oral dose, 49-day-old adult infection, read-out: WBR (worm burden reduction)
[12] = mice, single 200 mg/kg oral dose, 49-day-old adult infection
[13] = po, read-out: WBR (worm burden reduction), mice, single 200 mg/kg oral dose, 49-day-old adult infection

Row | SMILES | IC50 ([1]; 24 h, standard medium) [µM] | IC50 ([1]; 48 h, standard medium) [µM] | CC50 at 72 h [2, 8] [µM] | IC50 [3, 9] [µM] | IC50 [3, 10] [µM] | CC50 [4] [µM] | inhibition in vivo at 200 mg/kg [5, 11] [%] | Mean worm burden ± SD [5, 12] | CC50 at 72 h [2] [µM] | IC50 ([6]; 24 h, albumin 45 g/l) [µM] | IC50 ([6]; 72 h, albumin 45 g/l) [µM] | IC50 ([6]; 48 h, albumin 45 g/l) [µM] | other results
1 | Nc1nc2ccc(Cl)cc2c2nc(-c3ccco3)nn12 [MMV001539] | 28.2 | 12.3 | 2.9 | 12.7 | 11 | 16 |  |  |  |  |  |  | 
2 | COc1ccc(NC(=O)c2ccc(-c3ccc(-c4noc(C)n4)cc3C)cc2)cc1N1CCN(C)CC1 [MMV003452] | 1.7 | 3 |  | 4.4 | 2.2 | 1.9 | 12.2 | 40.5 ± 17.2 | 3.7 | 22.6 | 7.5 |  | 
3 | O=C(O)Cc1cccc(OCCCN(Cc2cccc(C(F)(F)F)c2Cl)CC(c2ccccc2)c2ccccc2)c1 [MMV690466] | 2.9 | 2.3 | 1.6 | 14.6 | 3.8 | 8.4 | 35.9 | 10.3 ± 6.9 |  | 18.1 | 47.6 | 89.7 | effect on NTS at 10 μM ([3]; 10 μM, 48 h): high effect; also recorded: high activity
4 | Fc1ccc(Cl)cc1-c1nc(Nc2ccncc2)c2nccnc2n1 [MMV690534] |  |  |  |  |  | 12.4 |  | 7.8 ± 7.5 |  |  |  |  | IC50 ([1]; 24 h): 17.4 µM; IC50 ([1]; 48 h): 19.3 µM; inhibition in vivo at 200 mg/kg [5, 13]: > 50%; CC50 at 72 h ([2]; L6 skeletal myoblast cells, 72-hour incubation, read-out: L6 cells CC50): 74.5 µM; IC50 ([3]; Schistosoma mansoni, 24 h, read-out: NTS IC50): 11.8 µM; IC50 ([3]; Schistosoma mansoni, 48 h, read-out: NTS IC50): 14.3 µM
5 | CC(C)(Cc1c[nH]c2ccc(Cl)cc12)NCCOc1ccccc1OCC1CC1 [MMV690599] |  |  | 3.4 | 10.5 | 3.5 | 2 |  | 44.7 ± 29.6 |  |  |  |  | IC50 ([1]; 48 h): 3.3 µM; inhibition in vivo at 200 mg/kg [5, 13]: 3.2%; IC50 ([6]; 24 h): 23.6 µM; IC50 ([6]; 48 h): 19.1 µM; IC50 ([6]; 72 h): 15.9 µM
6 | Cc1ccc(C(=O)N(CCCN)[C@@H](c2nc3cc(Cl)ccc3c(=O)n2Cc2ccccc2)C(C)C)cc1 [MMV690646, Ispinesib] | 3.7 |  |  | 3 | 1.1 | 0.2 |  |  |  | 32 | 33.6 | 122 | death of treated mice [7]: died prematurely; also recorded: death of the mice
7 | CC#CC(=O)Nc1ccc2ncnc(Nc3cccc(Br)c3)c2c1 [MMV690684] | 4.9 | 4.7 |  | 4 | 3.1 | 7 | 10 | 41.5 ± 16.5 | 7 | 76.8 | 7.7 | 14.4 | 
8 | CNCc1ccc(C)c(NC(=O)c2ccc(Nc3nc(-c4ccccc4)c4ccccc4n3)cc2)c1 [MMV690732] | 4.9 | 2.9 |  | 29.5 | 6.3 | 1.9 | 0 | 47.5 ± 24.3 | 2.3 | 62.8 | 54.1 | 181 | 
9 | CCOc1cc2ncc(C#N)c(Nc3ccc(F)c(Cl)c3)c2cc1NC(=O)/C=C/CN(C)C [MMV690765, Pelitinib] | 4.2 | 3.4 |  | 914 | > 1 | 0.7 | 0 | 84.0 ± 56.4 | 11.8 | 652 | 124 | 226 | 
10 | CC[C@@H]1C(=O)N(C)c2cnc(Nc3ccc(C(=O)NC4CCN(C)CC4)cc3OC)nc2N1C1CCCC1 [MMV690787] |  |  |  |  |  | 0.1 | 0 | 48.3 ± 21.6 |  |  |  |  | 
